Measured values reported in EP1203770A1 (priority 1992, dated 1994).

Biological target: T1, HIV-1 protease (Human immunodeficiency virus type 1 group M subtype B, UniProt P04585)
T1 construct: The protease (or proteinase), consisting of only 99 amino acids, is among the smallest enzymes known
Test: In vitro HIV protease inhibitory assay (HIV Protease FITC Assay)
Assay type: biochemical
Conditions: for inhibition at 0.41 µM: HIV-1 Dose 0.410 uM; for inhibition at 0.41 µM / inhibition at 1.23 µM / inhibition at 3.7 µM / inhibition at 11 µM / inhibition at 33 µM / inhibition at 100 µM / inhibition at 0.123 µM / inhibition at 0.37 µM / inhibition at 1.1 µM / inhibition at 3.3 µM / inhibition at 10 µM / inhibition at 30 µM: read-out: HIV-1 Protease % Inhib; for inhibition at 1.23 µM: HIV-1 Dose 1.230 uM; for inhibition at 3.7 µM: HIV-1 Dose 3.700 uM; for inhibition at 11 µM: HIV-1 Dose 11.000 uM; for inhibition at 33 µM: HIV-1 Dose 33.000 uM; for inhibition at 100 µM: HIV-1 Dose 100.000 uM; for Ki: read-out: HIV-1 FITC Ki
Method: The HIV protease screening assay is based on a fluorescently labeled substrate which can be resolved from nonlabeled cleavage product using avidin-polystyrene particles, 0.7-0.9 µm. The substrate is biotinylated at the amino terminal arginine and fluorescently labeled with fluorescein isothiocynate (FITC) at the carboxyl terminal lysine. […] Substrate (20 µl of 0.2 µM), sample (10 µl of desired concentraion), and enzyme (10 µl of 0.1 µM) are added to a 96 well pandex plate. The assay is run in 0.1 M sodium acetate buffer at pH 5.5 in the presence of 1.0 M sodium chloride and 0.05% NP-40 and incubated in the dark for one hour at room temperature. Avidin coated polystyrene beads {40 µl of 0.1% (w/v)} are added and the incubation is continued in the dark for an additional half hour. The labeled cleavage product is separated from the unreacted substrate via filtration and is read on the Idexx Screen Machine. The data are analyzed by appropriate computer algorithms to ascertain percent inhibition values.

Structure (SMILES)	inhibition at 0.41 µM [%]	inhibition at 1.23 µM [%]	inhibition at 3.7 µM [%]	inhibition at 11 µM [%]	inhibition at 33 µM [%]	inhibition at 100 µM [%]	Ki [nM]	inhibition at 0.123 µM (HIV-1 Dose 0.123 uM) [%]	inhibition at 0.37 µM (HIV-1 Dose 0.370 uM) [%]	inhibition at 1.1 µM (HIV-1 Dose 1.100 uM) [%]	inhibition at 3.3 µM (HIV-1 Dose 3.300 uM) [%]	inhibition at 10 µM (HIV-1 Dose 10.000 uM) [%]	inhibition at 30 µM (HIV-1 Dose 30.000 uM) [%]	HIV-1 Protease % Inhib (HIV-1 Dose 0.123 uM) [%]	HIV-1 Protease % Inhib (HIV-1 Dose 0.370 uM) [%]	HIV-1 Protease % Inhib (HIV-1 Dose 1.100 uM) [%]	HIV-1 Protease % Inhib (HIV-1 Dose 3.300 uM) [%]	HIV-1 Protease % Inhib (HIV-1 Dose 10.000 uM) [%]	HIV-1 Protease % Inhib (HIV-1 Dose 30.000 uM) [%]
CCC(Cc1ccco1)c1cc(O)c(C(c2ccccc2)C2CC2)c(=O)o1 (centres unmarked) [Example 59, 3-(Cyclopropyl-phenyl-methyl)-6-(1-furan-2-ylmethyl-propyl)4-hydroxy-pyran-2-one]	64.2	81.2	104	102	101	105	58	–	–	–	–	–	–	–	–	–	–	–	–
CCC(CC1OCCO1)c1cc(O)c(C(c2ccccc2)C2CC2)c(=O)o1 (centres unmarked) [Example 60, 3-(Cyclopropyl-phenyl-methyl)-6-(1-(1,3)dioxolan-2-ylmethyl-propyl)-4-hydroxy-pyran-2-one]	63.2	86.7	106	113	111	123	46	–	–	–	–	–	–	–	–	–	–	–	–
CCC(CC1CCCOC1)c1cc(O)c(C(c2ccccc2)C2CC2)c(=O)o1 (centres unmarked) [Example 61, 3-(Cyclopropyl-phenyl-methyl)-4-hydroxy-6-(1-(tetrahydro-pyran-3-ylmethyl)-propyl)-pyran-2-one]	100	101	108	111	111	103	13	–	–	–	–	–	–	–	–	–	–	–	–
CCC(CC1CCCCO1)c1cc(O)c(C(c2ccccc2)C2CC2)c(=O)o1 (centres unmarked) [Example 62, 3-(Cyclopropyl-phenyl-methyl)-4-hydroxy-6-(1-(tetrahydro-pyran-2-ylmethyl)-propyl)-pyran-2-one]	85.7	95.8	108	116	113	123	74	–	–	–	–	–	–	–	–	–	–	–	–
CCC(Cc1ccccn1)c1cc(O)c(C(c2ccccc2)C2CC2)c(=O)o1 (centres unmarked) [Example 63, 3-(Cyclopropyl-phenyl-methyl)-4-hydroxy-6-(1-pyridin-2-ylmethyl-propyl)-pyran-2-one]	68.5	95.8	101	110	112	117	79	–	–	–	–	–	–	–	–	–	–	–	–
CCC(CCCCl)c1cc(O)c(C(c2ccccc2)C2CC2)c(=O)o1 (centres unmarked) [Example 64, 6-(4-Chloro-1-ethyl-butyl)-3-(cyclopropyl-phenyl-methyl)-4-hydroxy-pyran-2-one]	–	–	–	–	–	–	44	13.7	53.9	87.7	103	109	119	–	–	–	–	–	–
CCC(CCC1OCCCO1)c1cc(O)c(C(c2ccccc2)C2CC2)c(=O)o1 (centres unmarked) [Example 65, 3-(Cyclopropyl-phenyl-methyl)-6-(3-(1,3)dioxan-2-yl-1-ethyl-propyl)-4-hydroxy-pyran-2-one]	–	–	–	–	–	–	141	< 10	28	71.2	93.2	107	122	–	–	–	–	–	–
CCC(CCCl)c1cc(O)c(C(c2ccccc2)C2CC2)c(=O)o1 (centres unmarked) [Example 66, 6-(3-Chloro-1-ethyl-propyl)-3-(cyclopropyl-phenyl-methyl)-4-hydroxy-pyran-2-one]	–	–	–	–	–	–	53	< 10	36	75.3	99.4	102	108	–	–	–	–	–	–
CCC(CCOC1CCCCO1)c1cc(O)c(C(c2ccccc2)C2CC2)c(=O)o1 (centres unmarked) [Example 67]	–	–	–	–	–	–	84	–	–	–	–	–	–	<10	32.64	72.63	92.3	106.66	118.42
CCC(Cc1ccncc1)c1cc(O)c(C(c2ccccc2)C2CC2)c(=O)o1 (centres unmarked) [Example 68, 3-(Cyclopropyl-phenyl-methyl)-4-hydroxy-6-(1-pyridin-4-ylmethyl-propyl)-pyran-2-one]	–	–	–	–	–	–	132	< 10	15.1	47.7	80.3	98.7	112	–	–	–	–	–	–
CCC(CC(=O)N1CCOCC1)c1cc(O)c(C(c2ccccc2)C2CC2)c(=O)o1 (centres unmarked) [Example 69, 3-(Cyclopropyl-phenyl-methyl)-6-(1-ethyl-3-morpholin-4-yl-3-oxo-propyl)-4-hydroxy-pyran-2-one]	–	–	–	–	–	–	–	< 10	< 10	13.9	42.1	75.2	98.5	–	–	–	–	–	–
CCC(Cc1cccnc1)c1cc(O)c(C(c2ccccc2)C2CC2)c(=O)o1 (centres unmarked) [Example 70, 3-(Cyclopropyl-phenyl-methyl)-4-hydroxy-6-(1-pyridin-3-ylmethyl-propyl)-pyran-2-one]	–	–	–	–	–	–	64	< 10	38.3	67.3	88.9	92.8	98.6	–	–	–	–	–	–
CCC(CCc1ccsc1)c1cc(O)c(C(c2ccccc2)C2CC2)c(=O)o1 (centres unmarked) [Example 71, 3-(Cyclopropyl-phenyl-methyl)-6-(1-ethyl-3-thiophen-3-yl-propyl)-4-hydroxy-pyran-2-one]	–	–	–	–	–	–	54	11.6	46.3	75	84	95.3	96.4	–	–	–	–	–	–
CCCC(CC1CCCOC1)c1cc(O)c(C(c2ccccc2)C2CC2)c(=O)o1 (centres unmarked) [Example 72, 3-(Cyclopropyl-phenyl-methyl)-4-hydroxy-6-[1-(tetrahydro-pyran-3-ylmethyl)-butyl]-pyran-2-one]	–	–	–	–	–	–	31	35	68.4	90.7	98.7	93.9	97.7	–	–	–	–	–	–
CCC(CCCN1CCOCC1)c1cc(O)c(C(c2ccccc2)C2CC2)c(=O)o1 (centres unmarked) [Example 73, 3-(Cyclopropyl-phenyl-methyl)-6-(1-ethyl-4-morpholin-4-yl-butyl)-4-hydroxy-pyran-2-one]	–	–	–	–	–	–	–	< 10	< 10	< 10	< 10	28.9	61.4	–	–	–	–	–	–
CCC(CC1COc2ccccc2O1)c1cc(O)c(C(c2ccccc2)C2CC2)c(=O)o1 (centres unmarked) [Example 74, 3-(Cyclopropyl-phenyl-methyl)-6-[1-(2,3-dihydro-benzo[1,4]dioxin-2-ylmethyl)-propyl]-4-hydroxy-pyran-2-one]	–	–	–	–	–	–	186	< 10	17.5	53.4	81.4	96.7	106	–	–	–	–	–	–
CC(C)Cc1cc(O)c(C(c2ccccc2)C2CC2)c(=O)o1 (centres unmarked) [Example 75, 3-(Cyclopropyl-phenyl-methyl)-4-hydroxy-6-isobutyl-pyran-2-one]	–	–	–	–	–	–	127	11.5	33.8	66	86.6	98.5	104	–	–	–	–	–	–
CCC(CC1=CCCOC1)c1cc(O)c(C(c2ccccc2)C2CC2)c(=O)o1 (centres unmarked) [Example 76, 3-(Cyclopropyl-phenyl-methyl)-6-[1-(5,6-dihydro-2H-pyran-3-ylmethyl)-propyl]-4-hydroxy-pyran-2-one]	–	–	–	–	–	–	–	25	54	82.4	98.9	102	105	–	–	–	–	–	–
CCC(c1ccccc1)c1c(O)c(Br)c(C(CC2CC2)CC2CC2)oc1=O (centres unmarked) [Example 77]	69.4	86.9	101	109	108	110	75	–	–	–	–	–	–	–	–	–	–	–	–
CCCc1oc(=O)c(C(c2ccccc2)C2CC2)c(O)c1CCOCCOC (centres unmarked) [Example 78, 3-(Cyclopropyl-phenyl-methyl)-4-hydroxy-5-[2-(2-methoxy-ethoxy)-ethyl]-6-propyl-pyran-2-one]	50.5	68.9	93.2	101	107	106	196	–	–	–	–	–	–	–	–	–	–	–	–
